{
  "source": "paper PMC11516055",
  "about": "“From Static to Dynamic Structures: Improving Binding Affinity Prediction with Graph‐Based Deep Learning” (Advanced Science, 2024)",
  "data": [
    {"molecular_target": "T1, HSP90 (9-236) (Homo sapiens, UniProt P07900)", "T1 construct": "HSP90 (9‐236) was cross‐linked on the surface of the Series S Sensor Chip CM5", "test": "Surface plasmon resonance (SPR) measurement of Ki on immobilised HSP90 (9-236)", "format": "binding", "settings": "Biacore S200, HSP90 (9-236) on CM5 chip, 1 × PBS with 5% DMSO", "source_text": "Next, we performed docking on HSP90 against the ChemBridge DIVERSet‐EXP library, which contains 50,000 small molecules that cover a diverse pharmacophore space. The docked conformers were obtained using Autodock Vina, a widely used open‐source docking software.^[ [16], [60] ^] The reference protein‐ligand structure (PDB ID: 2xdl) was chosen from the test set, CASF‐2016, to identify the binding pocket. Then, the docked poses were used to score and rank the molecules based on the Dynaformer predictions. After that, the top‐ranked compounds were filtered and visually inspected for prioritization, following the approach and criteria described in the literature^[ [7], [61] ^] (see Experimental Section for details). To ensure the fairness of prioritization, we created a pool consisting of molecules among the top 10% from both Dynaformer and the original scoring function in Autodock Vina. From the pool, 20 molecules were chosen without knowing their rankings. Finally, surface plasmon resonance (SPR) experiments were conducted for each of the 20 molecules to measure the inhibition constant K i . In total, 12 of the 20 molecules had measurable binding affinities.\nFinally, the binding affinities of the above 20 molecules were experimentally validated. Surface plasmon resonance (SPR) measurements were performed by the Biacore S200 instrument (GE Healthcare Life Sciences). HSP90 (9‐236) was cross‐linked on the surface of the Series S Sensor Chip CM5 (GE Healthcare) at pH 4.0 by an amine coupling kit with 1‐ethyl‐(3‐dimethylaminopropyl)‐carbodiimide hydrochloride (EDC) and NHS. Experiments were performed in a running buffer (1 × PBS with 5% DMSO). Each compound was serially diluted by a factor of two in the running buffer. The compound solution flowed through the surface of the chip at a flow rate of […]. Sensorgrams were analyzed and generated by Biacore Evaluation Software.", "units": {"Ki": "µM"}, "values": [
      {"compound": "COc1cccc(C(=O)Nc2ccc(Oc3ccccc3)cc2)c1OC", "note": "[compound 2]", "Ki": 0.517},
      {"compound": "CC1=NNc2nc3c(c(=O)n(Cc4c(F)cccc4Cl)c(=O)n3C)n2C1", "note": "[compound 1]", "Ki": 0.207},
      {"compound": "O=c1[nH]c(=O)c2c(-c3cccc4ccccc34)ccnc2[nH]1", "note": "[compound 8]", "Ki": 10},
      {"compound": "Cc1ccc(Cn2c(C)c(C)n3c4c(=O)[nH]c(=O)n(C)c4nc23)cc1", "note": "[compound 4]", "Ki": 2.5},
      {"compound": "Cc1ccc(-c2nc3nc4ccccc4nc3n2CC2CCCO2)cc1", "note": "(stereo not shown) [compound 9]", "Ki": 68.6},
      {"compound": "CCCC(=O)N1CCN(c2ccc(NC(=O)c3cccc(C)c3OC)cc2)CC1", "note": "[compound 11]", "Ki": 98},
      {"compound": "Cc1nn(-c2nc3ccccc3[nH]2)c2c1C(=O)CC(c1ccccc1O)C2", "note": "(stereo not shown) [compound 10]", "Ki": 70},
      {"compound": "Nc1c(C(=O)c2ccccc2)sc2nc3c(cc12)CCCC3", "note": "[compound 5]", "Ki": 3.97},
      {"compound": "O=C(Nc1ccccc1)C1CC(=O)N(c2ccc3c4c(cccc24)CC3)C1", "note": "(stereo not shown) [compound 6]", "Ki": 4.5},
      {"compound": "Cc1cccc(C(=O)Nc2ccc3c(c2)OCCO3)c1[N+](=O)[O-]", "note": "[compound 7]", "Ki": 6.9}
    ]},
    {"molecular_target": "T315I Abl kinase domain", "test": "not given", "set-up": "method as in PMID 17804707", "settings": "experimental value, PDB ID 2v7a, CASF-2016; cited from earlier work", "values": [
      {"compound": "CO[C@@H](C(=O)N1Cc2[nH]nc(NC(=O)c3ccc(N4CCN(C)CC4)cc3)c2C1)c1ccccc1", "note": "[2v7a]", "pKi": 8.3}
    ]},
    {"molecular_target": "aspartyl protease β-secretase (BACE)", "test": "not given", "set-up": "method as in PMID 22468999", "settings": "experimental value, PDB ID 3udh; cited from earlier work", "values": [
      {"compound": "O=C1Nc2ccccc2[C@]12CCNC2", "note": "[3udh]", "pKi": 2.8}
    ]},
    {"molecular_target": "HSP90", "test": "not given", "set-up": "method as in CASF-2016", "settings": "HSP90 ligand in CASF-2016, reference structure for docking; ref CASF-2016; cited from earlier work", "values": [
      {"compound": "CCN(CC)C(=O)c1ccc(O)c(OC)c1", "note": "[2XDL]", "pKi": 3.10}
    ]}
  ]
}
